The results in this text go back to patent US9180088B2, “Fulvestrant formulations” (SCIDOSE, LLC, priority 2008, dated 2015).

Values after ≈ are worked out from the molar mass of the structure shown.

A short description of series [1]: solubility of fulvestrant in solvents. In kind it is physicochemical.
Series [2] relates to subplanar paw of the rat. The series can be described thus: rat paw lick test. In kind it is in vivo. Particulars: 0.1 ml of solvent system injected on the subplanar paw of the rat. The protocol: In this method 0.1 ml of the solvent system is injected on the subplanar paw of the rat and the irritation is measured by the number of time that rat licks its paw over 15 minutes. This is quite quantitative and the number licks correlate to the irritation of the system.

Take `C[C@]12CC[C@@H]3c4ccc(O)cc4C[C@@H](CCCCCCCCC[S+]([O-])CCCC(F)(F)C(F)(F)F)[C@H]3[C@@H]1CC[C@@H]2O` (stereo partly drawn) [fulvestrant, 7-alpha-[9-(4,4,5,5,5-pentafluoropentylsulphinyl)nonyl]estra-1,3,5-(10)-triene-3,17-beta-diol]: the solubility in series [1] (20 mg/ml Lutrol in PEG 400 (2% Lutrol in PEG 400), organic solvent or mixture, in 20 mg/ml of Lutrol in PEG 400 (2% Lutrol in PEG 400)) is 66.7 mg/mL (≈ 110 mM); in series [1] (20 mg/ml Lutrol in propylene glycol, organic solvent or mixture, in 20 mg/ml of Lutrol in PG), 22.7 mg/mL (≈ 37.4 mM); in series [1] (1,4-dioxane, organic solvent or mixture, in 1,4 Dioxan), 833 mg/mL (≈ 1370 mM); in series [1] (10% ethanol/0.9% benzyl alcohol/30% PEG 400 in water (v/v), aqueous with cosolvent or surfactant or cyclodextrin, in 10% Ethanol/0.9% Benzylalcohol/30% PEG 400 in Water (v/v)) it was 10 mg/mL (≈ 16.5 mM); in series [1] (20-50 mg/ml Lutrol in dihydrolipoic acid, organic solvent or mixture, in 20-50 mg/ml Lutrol in dihydrolipoic acid), greater than 350 mg/mL; in series [1] (50% dihydrolipoic acid/50% lipoic acid, organic solvent or mixture, in 50% dihydrolipoic acid/50% lipoic acid), greater than 350 mg/mL. Further, the solubility in series [1] (Lutrol/PEG400/propylene glycol blends, organic solvent or mixture, in the Lutrol/PEG400/propylene glycol blends) was 50 mg/mL (≈ 82.4 mM); in series [1] (N-methylpyrrolidone, organic solvent or mixture, in N-Methylpyrrolidone), 864 mg/mL (≈ 1420 mM); in series [1] (PEG 400 + propylene glycol (1:1), organic solvent or mixture, in PEG 400 + PG (1:1)) it was 50 mg/mL; in series [1] (PEG-400 (neat), organic solvent or mixture, in PEG-400 (neat)), 22.5 mg/mL (≈ 37.1 mM); in series [1] (aqueous with cosolvent or surfactant or cyclodextrin, in 10% Ethanol/0.9% Benzylalcohol/30% PEG 400/20 mg per ml Lecithin, in Water), 5 mg/mL (≈ 8.24 mM); in series [1] (dihydrolipoic acid, organic solvent or mixture, in Dihydrolipoic acid), greater than 450 mg/mL. Further, the solubility in series [1] (ethyl acetate, organic solvent or mixture, in Ethyl acetate) stood at 7.8 mg/mL (≈ 12.9 mM); in series [1] (glycofurol, organic solvent or mixture, in Glycofurol), 400 mg/mL (≈ 659 mM); in series [1] (organic solvent or mixture, in 0.7 ml of (20 mg/ml of Lutrol in PEG 400) + 0.3 ml of Propylene Glycol), 50 mg/mL; in series [1] (organic solvent or mixture, in 0.8 ml of (20 mg/ml of Lutrol in PEG 400) + 0.2 ml of Propylene Glycol), 50 mg/mL; in series [1] (organic solvent or mixture, in 10% Ethanol/0.9% Benzylalcohol in PEG 400 (V/V, QS with PEG 400)) it was 10 mg/mL (≈ 16.5 mM); in series [1] (propylene glycol (neat), organic solvent or mixture, in Propylene Glycol (neat)) it was 4 mg/mL (≈ 6.59 mM). The solubility in series [1] (t-butanol, organic solvent or mixture, in T-butanol) is 194 mg/mL (≈ 320 mM). In addition, the solubility of fulvestrant entry in series [1] (in 0.9% Benzyl alcohol in Water), in series [1] (in 2% Benzyl alcohol in Water), in series [1] (in 10% Ethanol), in series [1] (in 10% Ethanol (in water) + PEG 400 (1:1)), in series [1] (in 30% Ethanol (in water)) and in series [1] (in 50% Ethanol (in water)) was “Insoluble” in each case. In addition, the solubility of fulvestrant entry in series [1] (in Aq.PVP K-30 solution (40 mg in 2 ml distil water)) is recorded as “Insoluble”; in series [1] (in Cetylalcohol), 20 mg/1 g; in series [1] (in Fat emulsion), “Insoluble”; in series [1] (in Hydroxy Ethyl Starch (10%)) it was “Insoluble”; in series [1] (in Lauryl macrogol - 32 glyceride (Gelucire 44/14 by Gattefosse)), “Insoluble”; in series [1] (in Lecithin (1%)), “Insoluble”. Further, the solubility of fulvestrant entry in series [1] (in Peanut Oil), in series [1] (in Poloxamer(Lutrol f-68) (2% sol in water)), in series [1] (in Sodium Citrate (30 Mmol)), in series [1] (in TPGS 1000), in series [1] (in Tween 20 (1%)) and in series [1] (in Tween 80 (1%)) was “Insoluble” each time.

Consider Glycofurol [Test # 02], for which the “IRRITABILITY (rating)” value in series [2] is on record as “No Irritation”. Moreover, in series [2] (15 minutes), the “number of times rat licks its paw in first 15 minutes” value is “Zero lick in first 15 minutes”.

As a reminder, the solubility is how much of the substance goes into solution per volume.
